# ChEMBL document CHEMBL4834425, “Spirombandakamine A3 and Cyclombandakamines A8 and A9, Polycyclic Naphthylisoquinoline Dimers, with Antiprotozoal Activity, from a Congolese Ancistrocladus Plant” (J Nat Prod, 2021)
# How the values were obtained:
# Plasmodium falciparum = experiment: Antiplasmodial activity against Plasmodium falciparum NF54 erythrocytic stages assessed as inhibition of parasite growth after 48 hrs by liquid scintillation counting method; assay type: functional, organism-based; conditions: NF54, 48 h
# Leishmania donovani = experiment: Antileishmanial activity against Leishmania donovani MHOM/ET/67/L82 amastigotes assessed as inhibition of parasite growth measured after 72 hrs by alamar blue dye based fluorometric analysis; assay type: functional, organism-based; conditions: MHOM/ET/67/L82, 72 h
# [1] = system: Trypanosoma brucei rhodesiense; experiment: Antitrypanosomal activity against bloodstream form of Trypanosoma brucei rhodesiense STIB900 assessed as inhibition of parasite growth incubated for 72 hrs by Alamar blue dye-based fluorometric analysis; assay type: functional, organism-based; conditions: STIB900, 72 h
# Trypanosoma cruzi = experiment: Antitrypanosomal activity against amastigote form of Trypanosoma cruzi Tulahuen C4 expressing LacZ infected in rat L6 cells assessed as inhibition of parasite growth incubated for 96 hrs by CPRG/Nonidet reagent based […] analysis; assay type: functional, organism-based; conditions: Tulahuen C4, L6, 96 h
# L6 = experiment: Cytotoxicity against rat L6 cells measured after 72 hrs by alamar blue dye based fluorometric analysis; assay type: cell-based; conditions: L6, 72 h
# [2] = Selectivity index, ratio of IC50 for cytotoxicity against rat L6 cells to IC50 for antiplasmodial activity against Plasmodium falciparum NF54; assay type: toxicity, cell-based; conditions: read-out: Ratio IC50
IC50 [1] [µM],IC50 (Trypanosoma cruzi) [µM],Structure (SMILES),IC50 (Plasmodium falciparum) [µM],IC50 (Leishmania donovani) [µM],IC50 (L6) [µM],selectivity ratio [2]
0.738,23.6,COc1ccc2c3c1C(=O)C[C@]1(C)Oc4c(cc(-c5c(O)cc(OC)c6c5C[C@H](C)N(C)[C@@H]6C)c5cc(C)cc(OC)c45)[C@]31Oc1cc(OC)c3c(c1-2)C[C@@H](C)N[C@@H]3C,0.059,54.2,16.8,282
,2.77,O=C(Cn1ccnc1[N+](=O)[O-])NCc1ccccc1 [BENZNIDAZOLE],,,,
0.292,17.3,COc1ccc2c3c1C(=O)C[C@]31c3cc(-c4c(O)cc(OC)c5c4C[C@@H](C)N[C@@H]5C)c4cc(C)cc(OC)c4c3O[C@]1(C)Oc1cc(OC)c3c(c1-2)C[C@@H](C)N(C)[C@@H]3C,0.071,> 100,19.3,272
,,CCCCCCCCCCCCCCCCOP(=O)([O-])OCC[N+](C)(C)C [MILTEFOSINE],,0.39,,
4.08,35.6,COc1ccc2c3c1C(=O)C[C@]1(C)Oc4c(cc(-c5c(O)cc(OC)c6c5C[C@H](C)N(C)[C@@H]6C)c5cc(C)cc(OC)c45)[C@]31Oc1cc(OC)c3c(c1-2)C[C@@H](C)N[C@H]3C,0.152,27.9,19.3,127
